Test results reported in patent publication US7268154B2, “Substituted triazole compounds” (Hoffman-La Roche Inc., priority 2005, dated 2007).

Target: T1, NK-3 receptor (HEK293 stably expressing NK3) (Homo sapiens, UniProt P29371)
T1 construct: expressed in transfected cells
T1 sequence (P29371 1-465): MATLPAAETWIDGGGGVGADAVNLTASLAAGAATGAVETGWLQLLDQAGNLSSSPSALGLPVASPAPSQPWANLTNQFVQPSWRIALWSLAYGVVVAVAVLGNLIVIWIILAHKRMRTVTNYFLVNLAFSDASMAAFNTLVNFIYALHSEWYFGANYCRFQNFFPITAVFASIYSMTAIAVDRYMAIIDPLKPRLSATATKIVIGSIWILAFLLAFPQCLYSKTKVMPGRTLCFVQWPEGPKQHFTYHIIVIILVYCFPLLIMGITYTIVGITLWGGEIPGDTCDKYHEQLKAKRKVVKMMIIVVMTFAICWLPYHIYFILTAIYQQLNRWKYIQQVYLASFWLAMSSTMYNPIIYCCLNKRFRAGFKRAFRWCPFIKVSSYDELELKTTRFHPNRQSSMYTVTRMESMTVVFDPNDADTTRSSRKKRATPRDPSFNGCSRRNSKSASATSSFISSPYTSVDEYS
Assay: Calcium mobilization assay (FLIPR): enhancement of the Neurokinin B agonist response
Type: cell-based
Conditions: for EC50: agonist Neurokinin B with or without enhancer, Fluo-4 fluorescence, read-out: EC50 (efficacy as allosteric positive modulator of NK-3 receptor); for fold increase of the Neurokinin B agonistic effect: value in parentheses after EC50
Experimental: Calcium mobilization assay: HEK293 stably expressing NK3 were seeded at a density of 50,000 cells into poly-D-lysine coated 96-well blackwall, clear-bottom microtiter plates (Becton Dickinson Labware, Bedford, Mass.). One day later, the medium was removed, and 100 μl loading medium [HBSS without phenol red, supplemented with 20 mM HEPES-acid, and 2 μM Fluo-4AM solubilized in 0.5 mM Pluronic F-127/DMSO (Molecular Probes, Leiden, The Netherlands)] was added. Cells were loaded for 1 h at 37° C., washed twice with 150 μl assay buffer (loading buffer without Fluo-4 AM), and then 260 μl assay buffer was added. Cells were further pre-incubated at room temperature before adding the agonist Neurokinin B with or without enhancer in 50 μl assay buffer and then measured on a T-channel fluorimetric imaging plate reader (FLIPR, Molecular Devices, Sunnyvale, Calif.). Maximum change in fluorescence over baseline was used to determine agonist response.
The efficacy as allosteric positive modulators of neurokinin 3 (NK-3) receptors is given in the table below as EC50 and fold increase of the Neurokinin B agonistic effect. The EC50 of preferred compounds is <5.0 μM.

| Compound | EC50 | fold increase of the Neurokinin B agonistic effect |
| --- | --- | --- |
| Cc1cc(Cl)ccc1OC(C)C(=O)N[C@H]1CC[C@@H](n2cc(C(=O)N3CCCC3)nn2)CC1 (relative stereo) [Example 4, 2-(4-Chloro-2-methyl-phenoxy)-N-{cis-4-[4-(pyrrolidine-1-carbonyl)-[1,2,3]triazol-1-yl]-cyclohexyl}-propionamide] | 560 nM | 1.7 fold |
| O=C(Cc1c(F)cccc1Cl)N[C@H]1CC[C@@H](n2cc(C(=O)N3CCCC3)nn2)CC1 [Example 1, 2-(2-Chloro-6-fluoro-phenyl)-N-{cis-4-[4-(pyrrolidine-1-carbonyl)-[1,2,3]triazol-1-yl]-cyclohexyl}-acetamide] | 3700 nM | 2.3 fold |
| Cc1cccc(-c2cccc(C(=O)N[C@H]3CC[C@@H](n4cc(C(=O)N5CCCC5)nn4)CC3)c2)c1 [Example 2, 3′-Methyl-biphenyl-3-carboxylic acid {cis-4-[4-(pyrrolidine-1-carbonyl)-[1,2,3]triazol-1-yl]-cyclohexyl}-amide] | 200 nM | 1.5 fold |
| O=C(N[C@H]1CC[C@@H](n2cc(C(=O)N3CCCC3)nn2)CC1)c1cccc(-c2ccc(F)cc2)c1 [Example 3, 4′-Fluoro-biphenyl-3-carboxylic acid {cis-4-[4-(pyrrolidine-1-carbonyl)-[1,2,3]triazol-1-yl]-cyclohexyl}-amide] | 860 nM | 1.6 fold |

Second part, the compound after the results:

| EC50 | fold increase of the Neurokinin B agonistic effect | Compound |
| --- | --- | --- |
| 4200 nM | 3.2 fold | COc1ccccc1C(=O)N[C@H]1CC[C@@H](n2cc(C(=O)N3CCCC3)nn2)CC1 [Example 6, 2-Methoxy-N-{cis-4-[4-(pyrrolidine-1-carbonyl)-[1,2,3]triazol-1-yl]-cyclohexyl}-benzamide] |
| 4500 nM | 5.6 fold | COc1ccc(C(=O)N[C@H]2CC[C@@H](n3cc(C(=O)N4CCCC4)nn3)CC2)cc1OC [Example 7, 3,4-Dimethoxy-N-{cis-4-[4-(pyrrolidine-1-carbonyl)-[1,2,3]triazol-1-yl]-cyclohexyl}-benzamide] |
| 2300 nM | 2.2 fold | O=C(N[C@H]1CC[C@@H](n2cc(C(=O)N3CCCC3)nn2)CC1)c1ccc(Cl)cc1 [Example 9, 4-Chloro-N-{cis-4-[4-(pyrrolidine-1-carbonyl)-[1,2,3]triazol-1-yl]-cyclohexyl}-benzamide] |
| 770 nM | 1.8 fold | O=C(c1cn([C@H]2CC[C@@H](NC(=O)C3(c4c(F)cccc4Cl)CCCC3)CC2)nn1)N1CCCC1 [Example 17, 1-(2-Chloro-6-fluoro-phenyl)-cyclopentanecarboxylic acid {cis-4-[4-(pyrrolidine-1-carbonyl)-[1,2,3]triazol-1-yl]-cyclohexyl}-amide] |
| 1800 nM | 1.6 fold | O=C(Cc1c(F)cccc1Cl)N[C@H]1CC[C@@H](n2cc(C(=O)Nc3ccccc3)nn2)CC1 [Example 19, 1-{cis-4-[2-(2-Chloro-6-fluoro-phenyl)-acetylamino]-cyclohexyl}-1H-[1,2,3]triazole-4-carboxylic acid phenylamide] |
